Laboratory results as given in PubChem BioAssay AID2060498 (Molecular Pharmacology Branch, DTP, NCI, 2025).

Test system: 171881-019-R-J1-PDC tumor spheroids, viability
Assay: Anticancer human tumor 171881-019-R-J1-PDC patient-derived invasive breast carcinoma cell line growth inhibition [GQUAD]
Conditions: spheroids with HUVEC and MSC; for IC50: curve of first compound; for viability, T/C: stronger effect = lower value
How it was run: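 Multi-cell-type spheroids of tumor cells with HUVEC and mesenchymal stem cells, treated with drug combinations. Concentrations descend in half-log steps from near clinical Cmax, or from 10 microM where Cmax is unknown; viability read-out.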

[1] = second compound 0.0316 µM, first compound 0.0316 µM
[2] = second compound 0.0316 µM, first compound 0.1 µM
[3] = second compound 0.0316 µM, first compound 0.316 µM
[4] = second compound 0.0316 µM, first compound 1 µM
[5] = second compound 0.0316 µM, first compound 3.16 µM
[6] = second compound 0.0316 µM, first compound 10 µM
[7] = second compound 0.1 µM, first compound 0.0316 µM
[8] = second compound 0.1 µM, first compound 0.1 µM
[9] = second compound 0.1 µM, first compound 0.316 µM
[10] = second compound 0.1 µM, first compound 1 µM
[11] = second compound 0.1 µM, first compound 3.16 µM
[12] = second compound 0.1 µM, first compound 10 µM
[13] = second compound 0.316 µM, first compound 0.0316 µM
[14] = second compound 0.316 µM, first compound 0.1 µM
[15] = second compound 0.316 µM, first compound 0.316 µM
[16] = second compound 0.316 µM, first compound 1 µM
[17] = second compound 0.316 µM, first compound 3.16 µM
[18] = second compound 0.316 µM, first compound 10 µM
[19] = second compound 1 µM, first compound 0.0316 µM
[20] = second compound 1 µM, first compound 0.1 µM
[21] = second compound 1 µM, first compound 0.316 µM
[22] = second compound 1 µM, first compound 1 µM
[23] = second compound 1 µM, first compound 3.16 µM
[24] = second compound 1 µM, first compound 10 µM
[25] = second compound 3.16 µM, first compound 0.0316 µM
[26] = second compound 3.16 µM, first compound 0.1 µM
[27] = second compound 3.16 µM, first compound 0.316 µM
[28] = second compound 3.16 µM, first compound 1 µM
[29] = second compound 3.16 µM, first compound 3.16 µM
[30] = second compound 3.16 µM, first compound 10 µM
[31] = second compound 10 µM, first compound 0.0316 µM
[32] = second compound 10 µM, first compound 0.1 µM
[33] = second compound 10 µM, first compound 0.316 µM
[34] = second compound 10 µM, first compound 1 µM
[35] = second compound 10 µM, first compound 3.16 µM
[36] = second compound 10 µM, first compound 10 µM
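Note: spheroids exposed to compounds for 7 days.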
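Throughout, for viability, T/C: 100% = DMSO vehicle control viability.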

O=C(c1cc(Cc2n[nH]c(=O)c3ccccc23)ccc1F)N1CCN(C(=O)C2CC2)CC1 + Cc1[nH]c2ccc(F)cc2c1-c1nc2c3cccnc3c3ncccc3c2[nH]1
IC50 (second compound 0.0316 µM): > 10000 nM | IC50 (second compound 0.1 µM): > 10000 nM | IC50 (second compound 0.316 µM): > 10000 nM | IC50 (second compound 1 µM): > 10000 nM | IC50 (second compound 3.16 µM): < 31.6 nM | IC50 (second compound 10 µM): > 10000 nM | viability, T/C [1]: 95.7% | viability, T/C [2]: 105% | viability, T/C [3]: 102% | viability, T/C [4]: 106% | viability, T/C [5]: 99.3% | viability, T/C [6]: 89.3% | viability, T/C [7]: 102% | viability, T/C [8]: 103% | viability, T/C [9]: 96.7% | viability, T/C [10]: 95.7% | viability, T/C [11]: 89.1% | viability, T/C [12]: 80.3% | viability, T/C [13]: 91.7% | viability, T/C [14]: 107% | viability, T/C [15]: 107% | viability, T/C [16]: 96.2% | viability, T/C [17]: 91.6% | viability, T/C [18]: 81.9% | viability, T/C [19]: 86.5% | viability, T/C [20]: 75.6% | viability, T/C [21]: 91.3% | viability, T/C [22]: 80.6% | viability, T/C [23]: 87.2% | viability, T/C [24]: 78.4% | viability, T/C [25]: 27.8% | viability, T/C [26]: 23.5% | viability, T/C [27]: 24.4% | viability, T/C [28]: 31.8% | viability, T/C [29]: 28.9% | viability, T/C [30]: 25.7% | viability, T/C [31]: 55.1% | viability, T/C [32]: 51.2% | viability, T/C [33]: 57.2% | viability, T/C [34]: 60.7% | viability, T/C [35]: 60.5% | viability, T/C [36]: 49.5%

Cc1cccc(N(C)C(=O)C2C(O)CCN2c2nc(C)cc(C(F)(F)F)c2C#N)c1 (stereo not drawn) + Cc1cnc(CNC(=O)c2c(=O)c3ccc(N4CCCN(C)CC4)nc3n3c2sc2ccccc23)cn1
IC50 (second compound 0.0316 µM): > 10000 nM | IC50 (second compound 0.1 µM): > 10000 nM | IC50 (second compound 0.316 µM): > 10000 nM | IC50 (second compound 1 µM): > 10000 nM | IC50 (second compound 3.16 µM): > 10000 nM | IC50 (second compound 10 µM): > 10000 nM | viability, T/C [1]: 105% | viability, T/C [2]: 87.2% | viability, T/C [3]: 90.4% | viability, T/C [4]: 92.2% | viability, T/C [5]: 88.5% | viability, T/C [6]: 79.7% | viability, T/C [7]: 86.9% | viability, T/C [8]: 88% | viability, T/C [9]: 77.6% | viability, T/C [10]: 76.2% | viability, T/C [11]: 80.6% | viability, T/C [12]: 79.5% | viability, T/C [13]: 73.5% | viability, T/C [14]: 73.1% | viability, T/C [15]: 75.8% | viability, T/C [16]: 69.7% | viability, T/C [17]: 77.7% | viability, T/C [18]: 69% | viability, T/C [19]: 67.5% | viability, T/C [20]: 66.5% | viability, T/C [21]: 71.1% | viability, T/C [22]: 66.4% | viability, T/C [23]: 74.2% | viability, T/C [24]: 70.3% | viability, T/C [25]: 65.3% | viability, T/C [26]: 60.9% | viability, T/C [27]: 63.1% | viability, T/C [28]: 55.9% | viability, T/C [29]: 68.8% | viability, T/C [30]: 67.8% | viability, T/C [31]: 60.9% | viability, T/C [32]: 66.7% | viability, T/C [33]: 61.3% | viability, T/C [34]: 66.2% | viability, T/C [35]: 67.6% | viability, T/C [36]: 66.8%

O=C(NO)c1cnc(N2CCN(S(=O)(=O)c3ccc4ccccc4c3)CC2)nc1 + Cc1cnc(CNC(=O)c2c(=O)c3ccc(N4CCCN(C)CC4)nc3n3c2sc2ccccc23)cn1
IC50 (second compound 0.0316 µM): 167 nM | IC50 (second compound 0.1 µM): 194 nM | IC50 (second compound 0.316 µM): 160 nM | IC50 (second compound 1 µM): 148 nM | IC50 (second compound 3.16 µM): 118 nM | IC50 (second compound 10 µM): 111 nM | viability, T/C [1]: 81.5% | viability, T/C [2]: 60.9% | viability, T/C [3]: 36.3% | viability, T/C [4]: 2.76% | viability, T/C [5]: 0.43% | viability, T/C [6]: 0.3% | viability, T/C [7]: 75.5% | viability, T/C [8]: 68.2% | viability, T/C [9]: 36.2% | viability, T/C [10]: 2.32% | viability, T/C [11]: 0.07% | viability, T/C [12]: 0.41% | viability, T/C [13]: 60.8% | viability, T/C [14]: 61.7% | viability, T/C [15]: 33.8% | viability, T/C [16]: 1.48% | viability, T/C [17]: 0.32% | viability, T/C [18]: 0.45% | viability, T/C [19]: 67% | viability, T/C [20]: 57.1% | viability, T/C [21]: 32.3% | viability, T/C [22]: 0.14% | viability, T/C [23]: 0.48% | viability, T/C [24]: 0.09% | viability, T/C [25]: 60% | viability, T/C [26]: 51.9% | viability, T/C [27]: 27.6% | viability, T/C [28]: 0.22% | viability, T/C [29]: 0.63% | viability, T/C [30]: 0.36% | viability, T/C [31]: 52.8% | viability, T/C [32]: 52.5% | viability, T/C [33]: 23.7% | viability, T/C [34]: 0.3% | viability, T/C [35]: 0.83% | viability, T/C [36]: 0.13%

C#Cc1c(F)ccc2cc(O)cc(-c3ncc4c(N5CC6CCC(C5)N6)nc(OCC56CCCN5CC(F)C6)nc4c3F)c12 (stereo not drawn) + Cc1cnc(CNC(=O)c2c(=O)c3ccc(N4CCCN(C)CC4)nc3n3c2sc2ccccc23)cn1
IC50 (second compound 0.0316 µM): 425 nM | IC50 (second compound 0.1 µM): 403 nM | IC50 (second compound 0.316 µM): 405 nM | IC50 (second compound 1 µM): 482 nM | IC50 (second compound 3.16 µM): 286 nM | IC50 (second compound 10 µM): 148 nM | viability, T/C [1]: 96.7% | viability, T/C [2]: 71.8% | viability, T/C [3]: 52.7% | viability, T/C [4]: 42.3% | viability, T/C [5]: 29.4% | viability, T/C [6]: 26% | viability, T/C [7]: 75.7% | viability, T/C [8]: 66% | viability, T/C [9]: 52% | viability, T/C [10]: 41.3% | viability, T/C [11]: 30.1% | viability, T/C [12]: 27.4% | viability, T/C [13]: 68% | viability, T/C [14]: 62.3% | viability, T/C [15]: 51.7% | viability, T/C [16]: 42% | viability, T/C [17]: 37.1% | viability, T/C [18]: 32.3% | viability, T/C [19]: 64.6% | viability, T/C [20]: 56.9% | viability, T/C [21]: 55.6% | viability, T/C [22]: 44.2% | viability, T/C [23]: 41% | viability, T/C [24]: 40.9% | viability, T/C [25]: 60.3% | viability, T/C [26]: 52.5% | viability, T/C [27]: 52.9% | viability, T/C [28]: 44.3% | viability, T/C [29]: 41.5% | viability, T/C [30]: 41.5% | viability, T/C [31]: 52.1% | viability, T/C [32]: 54.5% | viability, T/C [33]: 49.4% | viability, T/C [34]: 41.2% | viability, T/C [35]: 44.8% | viability, T/C [36]: 43.5%
